Patent US5053333A, “Protease” (M & D Research Co., Ltd., priority 1988, dated 1991)
Peptide text beside a SMILES is read from it. * marks the point of attachment. AMC = Cc1cc(=O)oc2cc(N*)ccc12; Boc = CC(C)(C)OC(=O)*

What was measured:
[1] = tested on: Benz-II (protease specific for basic amino acid residue); assay: Substrate specificity of Benz-II with fluorescent substrates; format: biochemical, Kluyveromyces lactis IFO 1903; conditions: activity for Boc-Gln-Arg-Arg-MCA being 100; standard conditions
Procedure: (§1) 1 ml of a reaction mixture containing 50 μmol of Tris-hydrochloride buffer (pH 7.0), 10 mg of Lubrol PX, 0.5 μmol of calcium chloride, 0.1 μmol of Boc-Gln-Arg-Arg-MCA, wherein Boc represents a t-butyloxycarbonyl group while MCA represents 4-methylcoumarin-7-amide and the enzyme is allowed to react at 30° C. The fluorescence (excition wavelength: 380 nm, emmision wavelength: 460 nm) originating from the 7-amino-4-methylcoumarin (AMC) thus formed is monitored with the lapse of time. The amount of the enzyme activity capable of catalyzing the release of 1 n mol of AMC per one minute is defined as 1 U. The specific activity is represented by U per mg of protein. The amount of the protein is determined by measurement the absorbance at […] as E^1% of protein being assumed to be 10.
(§2) The activities of Benz-I and Benz-II were determined under standard conditions with the use of various fluorescent substrates. The activity for each substrate was expressed by relative activity with the activity for Boc-Gln-Arg-Arg-MCA being 100.

[2] = tested on: Benz-I (protease specific for basic amino acid residue); assay: Substrate specificity of Benz-I with fluorescent substrates; format: biochemical, Kluyveromyces lactis IFO 1903; conditions: activity for Boc-Gln-Arg-Arg-MCA being 100; standard conditions
Procedure: as §1, §2

[3] = tested on: protease specific for basic amino acid residue from Sporobolomyces odrus IFO 1597; assay: Substrate specificity of Sporobolomyces protease with fluorescent substrates; format: biochemical; conditions: activity for Boc-Gln-Arg-Arg-MCA being 100; standard conditions
Procedure: A reaction mixture containing 50 μmol of tris hydrochloride buffer solution (pH 7.0), 10 mg of Lubrol PX, 0.5 μmol of calcium chloride, 0.1 μmol of Boc-Gln-Arg-Arg-MCA, wherein Boc represents a t-butyloxycalbonyl group while MCA represents 4-methylcoumarin-7-amide and the enzyme is allowed to react at 30° C. The fluorescence (excition wavelength: 380 nm, emission wavelength: 460 nm) originating from the 7-amino-4-methylcoumarin (AMC) thus formed is monitored. The amount of the enzyme capable of catalyzing the release of 1 nmol of AMC per one minute is defined as 1 U.
The activities of the enzyme for various fluorescent substrates were determined under standard reaction conditions.

[4] = tested on: Benz-II (protease specific for basic amino acid residue); assay: Behavior of Benz-II against various inhibitors (residual activity); format: biochemical, Kluyveromyces lactis IFO 1903; conditions: 25° C. 30 minutes, control lot = 100
[5] = tested on: protease B; assay: Activation and inhibition of protease B (stated properties); format: biochemical, Kluyveromyces lactis IFO 1903; conditions: statement in words
[6] = tested on: protease A; assay: Activation and inhibition of protease A (stated properties); format: biochemical, Sporobolomyces odrus IFO 1597; conditions: statement in words
Procedure: The enzymes was incubated in the absence of any substrate in standard reaction mixtures containing various inhibitors at 25° C. for 30 minutes. After adding the substrate, the residual activity of each enzyme was determined.
The enzyme was reacted in the standard reaction mixture while varying the type and concentration of surfactants.
The activity of the enzyme was determined in the presence of 0.1% of EDTA while varying the concentration of CaCl2. […] The concentration of free CaCl2 was calculated from the apparent dissociation constant (K1) of EDTA for CaCl2 (log K1 =7.3).

[7] = tested on: protease specific for basic amino acid residue from Sporobolomyces odrus IFO 1597; assay: Behavior of Sporobolomyces protease against various inhibitors (residual activity); format: biochemical; conditions: 25° C. 30 minutes
[8] = tested on: Benz-I (protease specific for basic amino acid residue); assay: Behavior of Benz-I against various inhibitors (residual activity); format: biochemical, Kluyveromyces lactis IFO 1903; conditions: 25° C. 30 minutes, control lot = 100

| Molecule | Relative activity of Benz-II for substrate [1] | Relative activity of Benz-I for substrate [2] | Activity (relative) for substrate [3] [%] | Residual activity of Benz-II ([4]; inhibitor 1 mM) | inhibition of protease B [5] | inhibition of protease A [6] | relative activity (residual) ([7]; Ca2+ +, inhibitor 1 mM) [%] | Residual activity of Benz-I ([8]; inhibitor 1 mM) | also measured |
| --- | --- | --- | --- | --- | --- | --- | --- | --- | --- |
| Cc1cc(=O)oc2cc(NC(=O)[C@H](CCCNC(=N)N)NC(=O)[C@H](CCCCN)NC(=O)CNC(=O)OC(C)(C)C)ccc12 [Boc--Gly--Lys--Arg--MCA] (Boc-Gly-Lys-Arg-{AMC}) | 123 | 120 | 59 | – | – | – | – | – | – |
| Cc1cc(=O)oc2cc(NC(=O)[C@H](CCCNC(=N)N)NC(=O)[C@H](CCCNC(=N)N)NC(=O)[C@H](CC(C)C)NC(=O)OC(C)(C)C)ccc12 [Boc--Leu--Arg--Arg--MCA] (Boc-Leu-Arg-Arg-{AMC}) | 156 | 159 | 115 | – | – | – | – | – | – |
| Cc1cc(=O)oc2cc(NC(=O)[C@H](CCCNC(=N)N)NC(=O)[C@H](CCCCN)NC(=O)[C@H](CC(C)C)NC(=O)OC(C)(C)C)ccc12 [Boc--Leu--Lys--Arg--MCA] (Boc-Leu-Lys-Arg-{AMC}) | 127 | 123 | 75 | – | – | – | – | – | – |
| Cc1cc(=O)oc2cc(NC(=O)[C@H](CCCNC(=N)N)NC(=O)[C@@H](NC(=O)[C@H](CO)NC(=O)[C@H](CC(C)C)NC(=O)OC(C)(C)C)[C@@H](C)O)ccc12 [Boc--Leu--Ser--Thr--Arg--MCA] (Boc-LSTR-{AMC}) | 97.0 | 127 | 2 | – | – | – | – | – | – |
| Cc1cc(=O)oc2cc(NC(=O)[C@H](CCCNC(=N)N)NC(=O)[C@@H](NC(=O)[C@H](CC(C)C)NC(=O)OC(C)(C)C)[C@@H](C)O)ccc12 [Boc--Leu--Thr--Arg--MCA] (Boc-Leu-Thr-Arg-{AMC}) | 13.9 | 20.0 | 3 | – | – | – | – | – | – |
| Cc1cc(=O)oc2cc(NC(=O)[C@H](CCCNC(=N)N)NC(=O)[C@@H]3CCCN3C(=O)[C@@H](NC(=O)OC(C)(C)C)C(C)C)ccc12 [Boc--Val--Pro--Arg--MCA] (Boc-Val-Pro-Arg-{AMC}) | 88.0 | 107 | 26 | – | – | – | – | – | – |
| O=S(=O)([O-])[O-].[Cu+2] [copper sulfate] | – | – | – | 0.6 | inhibited | inhibited | 2 | 0.2 | – |
| O=C(O)CN(CCOCCOCCN(CC(=O)O)CC(=O)O)CC(=O)O [ethylene glycol bis(2-aminoethyl ether)tetraacetic acid] | – | – | – | 43 | inhibited | inhibited | – | 53 | Residual activity of Benz-II ([4]; inhibitor 5 mM): 12; relative activity (residual) ([7]; Ca2+ --, inhibitor 1 mM): 10%; Residual activity of Benz-I ([8]; inhibitor 5 mM): 12 |
| [Cl][Hg][Cl] [mercury chloride] | – | – | – | 0 | inhibited | inhibited | 0 | 0 | – |
| N=C(N)c1ccc(CS(=O)(=O)F)cc1 [p-amidino-PMSF, p-amidinophenylmethanesulfonyl fluoride] | – | – | – | 0 | inhibited | inhibited | 10 | 0 | – |
| O=C(O)c1cc[c]([Hg][Cl])cc1 [p-chloromercuribenzoic acid] | – | – | – | – | inhibited | inhibited | – | – | Residual activity of Benz-II ([4]; inhibitor 50 μM): 3; relative activity (residual) ([7]; Ca2+ +, inhibitor 50 μM): 36%; Residual activity of Benz-I ([8]; inhibitor 50 μM): 1 |
| [Cl-].[Cl-].[Zn+2] [zinc chloride] | – | – | – | 7 | inhibited | inhibited | 1 | 7 | – |
| Triton X-100 | – | – | – | – | – | – | – | – | activation of protease B [5]: activated; activation of protease A [6]: activated |
